Assay [1] concerns MDA-MB-231. The experiment in a line: Potency index, ratio of doxorubicin IC50 to compound IC50 for human MDA-MB-231 cells. It is filed as functional.
The subject of assay [2] is MDA-MB-231. The experiment in a line: Antiproliferative activity against human MDA-MB-231 cells assessed as reduction in cell viability measured after 6 days by MTT assay. The class given is functional, cell-based. The note with it: MDA-MB-231, 144 h.
A further assay relates to MCF7. As to the kind of experiment: Antiproliferative activity against human MCF7 cells assessed as reduction in cell viability measured after 6 days by MTT assay. It is filed as functional, cell-based. The note with it: MCF7, 144 h.
For the next assay, the system named is MRC5. The experiment in a line: Cytotoxicity against human MRC5 cells assessed as reduction in cell viability measured after 6 days by MTT assay. The class given is cell-based. The note with it: MRC5, 144 h.
For assay [3], the system named is Raji. As to the kind of experiment: Antiproliferative activity against human Raji cells assessed as reduction in cell viability measured after 6 days by MTT assay. The class given is functional, cell-based. The conditions noted are these: 144 h.
The test system of the next assay is K562. As to the kind of experiment: Antiproliferative activity against human K562 cells assessed as reduction in cell viability measured after 6 days by MTT assay. The class given is functional, cell-based. The conditions noted are these: K562, 144 h.
A further assay concerns HeLa. The experiment in a line: Antiproliferative activity against human HeLa cells assessed as reduction in cell viability measured after 6 days by MTT assay. The class given is functional, cell-based. The note with it: 144 h.
Assay [4] has as its system A549. As to the kind of experiment: Antiproliferative activity against human A549 cells assessed as reduction in cell viability measured after 6 days by MTT assay. The class given is functional, cell-based. The note with it: A549, 144 h.
For another assay, the system named is Jurkat. As to the kind of experiment: Antiproliferative activity against human Jurkat cells assessed as reduction in cell viability measured after 6 days by MTT assay. The class given is functional, cell-based. The conditions noted are these: 144 h.
Another assay relates to HL-60. As to the kind of experiment: Antiproliferative activity against human HL-60 cells assessed as reduction in cell viability measured after 6 days by MTT assay. It is filed as functional, cell-based. The conditions noted are these: HL-60, 144 h.
Assay [5] concerns A549. The experiment in a line: Potency index, ratio of doxorubicin IC50 to compound IC50 for human A549 cells. It is filed as functional.
Assay [6] relates to Raji. As to the kind of experiment: Potency index, ratio of doxorubicin IC50 to compound IC50 for human Raji cells. It is filed as functional.

The structures appear in SMILES notation. Where only a bound is given, the exact number is not on record here.

As for `CC(=O)O[C@@H]1C=CC(=O)O[C@@H]1[C@@H](COC(=O)c1c(Cl)cc(Cl)cc1Cl)OC(C)=O`, the “Ratio IC50” value in the assay on MDA-MB-231 [1] is given as 5.

In the case of `O=C1C=C[C@@H](OCc2ccccc2)[C@@H]([C@@H](COC(=O)/C=C/c2ccc([N+](=O)[O-])cc2)OCc2ccccc2)O1`, the 50% inhibitory concentration (IC50) was 1.55 µM with MDA-MB-231 [2]; 1.66 µM with MCF7; over 100 µM with MRC5; 0.14 µM in the assay on Raji [3]; 1.27 µM in the assay with K562; 2.65 µM in the assay on HeLa. Also, the results for the half-inhibitory concentration (IC50) in the assay on A549 [4], in the assay on Jurkat and in the assay with HL-60 were 5.24 µM, 5.71 µM and 2.53 µM, respectively.

On to `CC(=O)O[C@@H]1C=CC(=O)O[C@@H]1[C@@H](COC(=O)c1ccc(Cl)cc1)OC(C)=O`, for which the IC50 was 1.85 µM with MDA-MB-231 [2]; 2.64 µM in the assay on MCF7; over 100 µM with MRC5; 1.85 µM in the assay on Raji [3]; 3.69 µM in the assay on K562; 11 µM in the assay on HeLa. Further, the values for the concentration for half-maximal inhibition (IC50) in the assay on A549 [4], in the assay with Jurkat and in the assay on HL-60 were 15.7 µM, 24.4 µM and 32.6 µM, respectively.

Turning to `CO[C@H]1CC(=O)O[C@H]([C@@H](COC(=O)/C=C/c2ccc([N+](=O)[O-])cc2)OC(C)=O)[C@@H]1OC(C)=O`, the IC50 was 28.6 µM in the assay with MDA-MB-231 [2]; 5.12 µM in the assay on MCF7; over 100 µM with MRC5; 5.64 µM with Raji [3]; 2.38 µM with K562; 0.67 µM with HeLa. Moreover, the IC50 in the assay on A549 [4] turned out to be 0.18 µM; in the assay with Jurkat, 0.12 µM; with HL-60, 3.11 µM. Further, in the assay on A549 [5], the “Ratio IC50” value is 27.

With `CC(=O)O[C@@H]1C=CC(=O)O[C@@H]1[C@@H](COC(=O)/C=C/c1ccc([N+](=O)[O-])cc1)OC(C)=O`, the 50% inhibitory concentration (IC50) with MDA-MB-231 [2] is 6.93 µM; with MCF7, 1.4 µM; with MRC5 it was over 100 µM; in the assay with Raji [3], 2.75 µM; with K562, 2.34 µM; in the assay on HeLa, 1.84 µM. Besides, the results for the IC50 with A549 [4], in the assay with Jurkat and in the assay with HL-60 were 2.26 µM, 0.58 µM and 4.03 µM, respectively.

For the compound `CC(=O)OC[C@@H](OC(C)=O)[C@H]1OC(=O)C=C[C@H]1OC(C)=O`, the IC50 in the assay on MDA-MB-231 [2] was 7.48 µM; with MCF7 it was 3.87 µM; in the assay with MRC5 it was over 100 µM; with Raji [3], 10.1 µM; in the assay on K562, 7.54 µM; with HeLa, 2.64 µM. Also, the IC50 in the assay on A549 [4] turned out to be 12.6 µM; with Jurkat, 24.6 µM; in the assay with HL-60, 29.7 µM.

With `O=C1CC2OCC(OCc3ccccc3)C(O1)C2OCc1ccccc1` (stereo unspecified), the half-inhibitory concentration (IC50) is 0.16 µM in the assay on MDA-MB-231 [2]; 0.21 µM in the assay on MCF7; over 100 µM with MRC5; 0.6 µM in the assay with Raji [3]; 8.1 µM in the assay on K562; 8.22 µM with HeLa. The half-inhibitory concentration (IC50) in the assay with A549 [4] was 6.24 µM; in the assay with Jurkat it was 1.08 µM; in the assay on HL-60, 3.48 µM.

On to `O=C1C=C[C@@H](OCc2ccccc2)[C@@H]([C@@H](COC(=O)/C=C/c2ccc(F)cc2)OCc2ccccc2)O1`, for which the IC50 with MDA-MB-231 [2] was 3.58 µM; in the assay on MCF7, 3.01 µM; in the assay with MRC5, over 100 µM; with Raji [3], 2.47 µM; in the assay with K562 it was 1.01 µM; with HeLa, 7.31 µM. In addition, the IC50 turned out to be 12.1 µM in the assay on A549 [4], 4.16 µM in the assay on Jurkat and 5.4 µM with HL-60.

Turning to `O=C1C=C[C@@H](OC(=O)c2ccccc2)[C@@H]([C@@H](COC(=O)c2ccccc2)OC(=O)c2ccccc2)O1`, the concentration for half-maximal inhibition (IC50) with MDA-MB-231 [2] is 52.3 µM; in the assay on MCF7, 2.36 µM; in the assay with MRC5, over 100 µM; in the assay with Raji [3] it was 1.08 µM; in the assay with K562 it was 3.25 µM; in the assay on HeLa, 15.5 µM. Moreover, the IC50 was 21.5 µM with A549 [4], 47.2 µM in the assay with Jurkat and 8.25 µM in the assay with HL-60.

In the case of `COc1ccc(/C=C/C(=O)OC[C@@H](OCc2ccccc2)[C@H]2OC(=O)C=C[C@H]2OCc2ccccc2)cc1`, the IC50 is 3.26 µM in the assay on MDA-MB-231 [2]; 1.11 µM with MCF7; over 100 µM with MRC5; 0.69 µM in the assay on Raji [3]; 0.43 µM with K562; 1.08 µM in the assay on HeLa. For the same compound, the concentration for half-maximal inhibition (IC50) in the assay on A549 [4] turned out to be 4.25 µM; with Jurkat, 10.3 µM; with HL-60, 1.57 µM.

For the compound `COc1cccc(C(=O)OC[C@@H](OC(=O)c2cccc(OC)c2)[C@H]2OC(=O)C=C[C@H]2OC(=O)c2cccc(OC)c2)c1`, the IC50 is 1.58 µM in the assay on MDA-MB-231 [2]; 30.2 µM in the assay on MCF7; over 100 µM in the assay on MRC5; 2.69 µM in the assay with Raji [3]; 4.65 µM in the assay with K562; 7.64 µM in the assay on HeLa. Besides, the half-maximal inhibitory concentration (IC50) in the assay on A549 [4] is 18.2 µM; with Jurkat it was 21.2 µM; with HL-60, 6.21 µM.

In the case of `O=C1C=C[C@@H](OCc2ccccc2)[C@@H]([C@@H](CO)OCc2ccccc2)O1`, the half-maximal inhibitory concentration (IC50) is 4.79 µM in the assay on MDA-MB-231 [2]; 17.6 µM with MCF7; over 100 µM in the assay with MRC5; 0.01 µM in the assay with Raji [3]; 1.42 µM with K562; 4.8 µM with HeLa. Moreover, the IC50 in the assay with A549 [4] worked out at 12.9 µM; in the assay on Jurkat it was 12.3 µM; in the assay with HL-60 it was 10.2 µM. In addition, in the assay with Raji [6], the “Ratio IC50” value was 298.

With `CC(=O)O[C@@H]1C=CC(=O)O[C@@H]1[C@@H](COC(=O)/C=C/c1ccc(F)cc1)OC(C)=O`, the IC50 in the assay on MDA-MB-231 [2] is 34.4 µM; in the assay on MCF7, 4.26 µM; in the assay with MRC5, over 100 µM; in the assay on Raji [3], 2.31 µM; with K562, 3.46 µM; in the assay with HeLa, 1.68 µM. Besides, the half-inhibitory concentration (IC50) in the assay on A549 [4] is 2.12 µM; in the assay on Jurkat, 5.32 µM; with HL-60 it was 1.89 µM.

As to `COc1ccc(/C=C/C(=O)OC[C@@H](OC(C)=O)[C@H]2OC(=O)C=C[C@H]2OC(C)=O)cc1`, the IC50 in the assay on MDA-MB-231 [2] stood at 22.8 µM; in the assay with MCF7 it was 9.31 µM; in the assay on MRC5, 78 µM; in the assay with Raji [3], 10 µM; in the assay on K562, 6.96 µM; in the assay with HeLa it was 5.93 µM. Besides, the half-maximal inhibitory concentration (IC50) worked out at 1.4 µM with A549 [4], 2.59 µM with Jurkat and 10 µM in the assay with HL-60.

Take `O=C1C=C[C@@H](OCc2ccccc2)[C@@H]([C@@H](COC(=O)/C=C/c2ccccc2)OCc2ccccc2)O1`: the concentration for half-maximal inhibition (IC50) in the assay with MDA-MB-231 [2] is 4.97 µM; in the assay on MCF7, 2.57 µM; with MRC5 it was over 100 µM; with Raji [3], 1.33 µM; in the assay with K562, 1.59 µM; in the assay with HeLa, 9.51 µM. Besides, the IC50 came out at 13.2 µM in the assay with A549 [4], 4.96 µM in the assay on Jurkat and 0.61 µM in the assay with HL-60.

With `CC(=O)OC[C@@H](OCc1ccccc1)[C@H]1OC(=O)C=C[C@H]1OCc1ccccc1`, the IC50 is 6.42 µM in the assay with MDA-MB-231 [2]; 18.9 µM with MCF7; over 100 µM with MRC5; 1.82 µM in the assay on Raji [3]; 0.88 µM with K562; 5.35 µM with HeLa. Moreover, the results for the half-inhibitory concentration (IC50) with A549 [4], in the assay with Jurkat and with HL-60 were 15 µM, 14.7 µM and 9.23 µM, respectively.

Regarding `O=C1CC2OCC(O)C(O1)C2O` (stereo unspecified), the IC50 in the assay on MDA-MB-231 [2] is 31.5 µM; in the assay on MCF7, 3.34 µM; in the assay with MRC5, over 100 µM; in the assay on Raji [3] it was 8.12 µM; in the assay with K562, 2.92 µM; with HeLa it was 1.17 µM. Besides, the concentration for half-maximal inhibition (IC50) in the assay with A549 [4] was 1.15 µM; with Jurkat, 1.65 µM; in the assay on HL-60, 1.64 µM.

As to `CC(=O)O[C@@H]1C=CC(=O)O[C@@H]1[C@@H](COC(=O)c1ccc([N+](=O)[O-])cc1)OC(C)=O`, the concentration for half-maximal inhibition (IC50) in the assay on MDA-MB-231 [2] is 4.12 µM; in the assay with MCF7 it was 5.32 µM; in the assay with MRC5, over 100 µM; in the assay on Raji [3], 18.5 µM; with K562, 7.64 µM; in the assay on HeLa, 4.65 µM. Moreover, the figures for the concentration for half-maximal inhibition (IC50) in the assay on A549 [4], with Jurkat and in the assay with HL-60 were 8.64 µM, 7.45 µM and 1.11 µM, respectively.

(Values after ChEMBL document CHEMBL4765375, “Synthesis, antiproliferative activity and SAR analysis of (-)-cleistenolide and analogues” (Eur J Med Chem, 2020).)
